For 24 molecules, IC50 results are on record in patent US9771369B2, “Compounds and methods for kinase modulation, and indications therefor” (Plexxikon Inc., priority 2014, dated 2017).

The test system of assay [1] is BaF3-FL KIT D816V or BaF3-FL KIT V560G/D816V cell line. The experiment in a line: Cell-based assays of c-Kit mutant kinase activity (cell proliferation, ATPlite). The conditions noted are these: at least one of the c-kit cell assays of Example 7. In a few lines: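 BaF3 cells dependent on transfected full-length human KIT D816V or V560G/D816V (pCI-Neo, CMV promoter) were seeded at 1×10^4 cells/well and exposed to 8-point 1:3 dilutions from 10 μM top (0.2% DMSO) for three days at 37° C. ATPlite luminescence gave cell number; IC50 from concentration-response.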
On the technique in general: ATP-based viability assays read luminescence as a measure of living cells.

The target in another assay is c-Kit kinase (Homo sapiens (Human), UniProt P10721). As to the kind of experiment: c-Kit biochemical assay (AlphaScreen kinase activity). In short, it runs like this:
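AlphaScreen: c-Kit phosphorylates biotin-(E4Y)3 (100 nM) at 10 μM ATP, pH 7.2 HEPES buffer with Mg/Mn, 5% DMSO, 1 h room temperature; streptavidin donor and PY30 acceptor beads detect product. Second format: 100 μM ATP, 30 nM biotin-(E4Y)10, pH 7.5. IC50 from 8-point 1:3 dilution curves.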
A general note: Bead proximity is the source of the signal in Alpha formats.

c-Kit kinase, sequence (P10721 26-976): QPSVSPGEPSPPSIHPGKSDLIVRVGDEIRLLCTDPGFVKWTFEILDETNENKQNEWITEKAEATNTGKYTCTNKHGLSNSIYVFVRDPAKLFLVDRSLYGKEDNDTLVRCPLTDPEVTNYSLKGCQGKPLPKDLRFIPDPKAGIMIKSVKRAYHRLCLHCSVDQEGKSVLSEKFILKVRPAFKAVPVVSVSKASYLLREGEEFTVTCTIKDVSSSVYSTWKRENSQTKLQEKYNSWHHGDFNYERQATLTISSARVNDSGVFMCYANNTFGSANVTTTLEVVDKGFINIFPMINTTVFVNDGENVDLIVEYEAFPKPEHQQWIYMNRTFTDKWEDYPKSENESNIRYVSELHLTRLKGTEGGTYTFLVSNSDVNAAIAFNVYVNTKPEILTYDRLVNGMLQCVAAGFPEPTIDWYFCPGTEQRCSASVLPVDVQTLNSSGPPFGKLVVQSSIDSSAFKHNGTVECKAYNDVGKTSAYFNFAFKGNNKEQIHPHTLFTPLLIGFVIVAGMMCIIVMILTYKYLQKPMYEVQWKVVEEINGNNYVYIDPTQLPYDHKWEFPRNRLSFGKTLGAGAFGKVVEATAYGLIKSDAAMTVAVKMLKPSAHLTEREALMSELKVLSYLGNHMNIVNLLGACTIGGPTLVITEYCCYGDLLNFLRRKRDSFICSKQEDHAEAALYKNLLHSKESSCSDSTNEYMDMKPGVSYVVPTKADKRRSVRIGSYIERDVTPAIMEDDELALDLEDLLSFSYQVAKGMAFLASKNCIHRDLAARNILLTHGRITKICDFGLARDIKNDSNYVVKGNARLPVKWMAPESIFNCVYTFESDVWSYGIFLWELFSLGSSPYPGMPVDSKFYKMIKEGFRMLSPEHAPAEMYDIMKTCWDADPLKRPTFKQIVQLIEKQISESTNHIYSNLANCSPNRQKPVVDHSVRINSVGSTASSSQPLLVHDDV

Consider `COc1ccc(-c2nc(C3(C)CCN(c4ncnc5[nH]c(C)cc45)CC3)[nH]c2C)cn1` [P-3186, 4-[4-[4-(6-methoxy-3-pyridyl)-5-methyl-1H-imidazol-2-yl]-4-methyl-1-piperidyl]-6-methyl-7H-pyrrolo[2,3-d]pyrimidine], for which the IC50 in assay [1] was under 10 µM; against c-Kit kinase, 1 to 10 µM.

Take `COc1ccc(-c2[nH]c(C3(C)CCN(c4ncnc5[nH]c(-c6cnn(C(F)F)c6)cc45)CC3)nc2C)cc1F` [P-3187, 6-[1-(difluoromethyl)pyrazol-4-yl]-4-[4-[5-(3-fluoro-4-methoxy-phenyl)-4-methyl-1H-imidazol-2-yl]-4-methyl-1-piperidyl]-7H-pyrrolo[2,3-d]pyrimidine]: the IC50 in assay [1] was under 10 µM; against c-Kit kinase, 0.0001 to 1 µM.

For the molecule `COc1ccc(-c2cc3c(N4CCC(C)(c5nc(C)c(-c6ccc(OC)c(F)c6)[nH]5)CC4)ncnc3[nH]2)cn1` [P-3188, 4-[4-[5-(3-fluoro-4-methoxy-phenyl)-4-methyl-1H-imidazol-2-yl]-4-methyl-1-piperidyl]-6-(6-methoxy-3-pyridyl)-7H-pyrrolo[2,3-d]pyrimidine], the half-maximal inhibitory concentration (IC50) was under 10 µM in assay [1] and 0.0001 to 1 µM against c-Kit kinase.

As to `Cc1nc(C2(C)CCN(c3ncnc4[nH]c(-c5cnn(C(F)F)c5)cc34)CC2)[nH]c1-c1ccc(C(F)F)cc1` [P-3189, 4-[4-[5-[4-(difluoromethyl)phenyl]-4-methyl-1H-imidazol-2-yl]-4-methyl-1-piperidyl]-6-[1-(difluoromethyl)pyrazol-4-yl]-7H-pyrrolo[2,3-d]pyrimidine], the IC50 in assay [1] is under 10 µM; against c-Kit kinase, 0.0001 to 1 µM.

With `COc1ccc(-c2cc3c(N4CCC(C)(c5nc(C)c(-c6ccc(C(F)F)cc6)[nH]5)CC4)ncnc3[nH]2)cn1` [P-3190, 4-[4-[5-[4-(difluoromethyl)phenyl]-4-methyl-1H-imidazol-2-yl]-4-methyl-1-piperidyl]-6-(6-methoxy-3-pyridyl)-7H-pyrrolo[2,3-d]pyrimidine], the IC50 in assay [1] is under 10 µM; at c-Kit kinase, 0.0001 to 1 µM.

Take `Cc1cc2c(N3CCC(C)(c4nc(C)c(-c5cccc(OC(F)F)c5)[nH]4)CC3)ncnc2[nH]1` [P-3191, 4-[4-[5-[3-(difluoromethoxy)phenyl]-4-methyl-1H-imidazol-2-yl]-4-methyl-1-piperidyl]-6-methyl-7H-pyrrolo[2,3-d]pyrimidine]: the IC50 is under 10 µM in assay [1] and 1 to 10 µM against c-Kit kinase.

Take `Cc1nc(C2(C)CCN(c3ncnc4[nH]c(-c5cnn(C(F)F)c5)cc34)CC2)[nH]c1-c1cccc(OC(F)F)c1` [P-3192, 4-[4-[5-[3-(difluoromethoxy)phenyl]-4-methyl-1H-imidazol-2-yl]-4-methyl-1-piperidyl]-6-[1-(difluoromethyl)pyrazol-4-yl]-7H-pyrrolo[2,3-d]pyrimidine]: the IC50 in assay [1] is under 10 µM; on c-Kit kinase, 0.0001 to 1 µM.

For the molecule `COc1ccc(-c2cc3c(N4CCC(C)(c5nc(C)c(-c6cccc(OC(F)F)c6)[nH]5)CC4)ncnc3[nH]2)cn1` [P-3193, 4-[4-[5-[3-(difluoromethoxy)phenyl]-4-methyl-1H-imidazol-2-yl]-4-methyl-1-piperidyl]-6-(6-methoxy-3-pyridyl)-7H-pyrrolo[2,3-d]pyrimidine], the IC50 was under 10 µM in assay [1] and 0.0001 to 1 µM against c-Kit kinase.

As to `Cc1nc(C2(C)CCN(c3ncnc4[nH]c(-c5ccc(C#N)cc5)cc34)CC2)[nH]c1-c1cccc(OC(F)F)c1` [P-3194, 4-[4-[4-[5-[3-(difluoromethoxy)phenyl]-4-methyl-1H-imidazol-2-yl]-4-methyl-1-piperidyl]-7H-pyrrolo[2,3-d]pyrimidin-6-yl]benzonitrile], the IC50 in assay [1] is under 10 µM; against c-Kit kinase, 1 to 10 µM.

As to `Cc1nc(C2(C)CCN(c3ncnc4[nH]c(-c5ccc(C#N)cc5)cc34)CC2)[nH]c1-c1ccc(OC(F)F)cc1` [P-3195, 4-[4-[4-[5-[4-(difluoromethoxy)phenyl]-4-methyl-1H-imidazol-2-yl]-4-methyl-1-piperidyl]-7H-pyrrolo[2,3-d]pyrimidin-6-yl]benzonitrile], the values for the IC50 (in assay [1]; at c-Kit kinase) were under 10 µM and 0.0001 to 1 µM, respectively.

As to `Cc1cc2c(N3CCC(C)(c4nc(C)c(-c5ccc(OC(F)F)cc5)[nH]4)CC3)ncnc2[nH]1` [P-3196, 4-[4-[5-[4-(difluoromethoxy)phenyl]-4-methyl-1H-imidazol-2-yl]-4-methyl-1-piperidyl]-6-methyl-7H-pyrrolo[2,3-d]pyrimidine], the IC50 was under 10 µM in assay [1] and 1 to 10 µM against c-Kit kinase.

Take `CCc1[nH]c(C2CCN(c3ncnc4[nH]c(-c5cnn(C(F)F)c5)cc34)CC2)nc1C` [P-3197, 6-[1-(difluoromethyl)pyrazol-4-yl]-4-[4-(5-ethyl-4-methyl-1H-imidazol-2-yl)-1-piperidyl]-7H-pyrrolo[2,3-d]pyrimidine]: the IC50 in assay [1] was under 10 µM; at c-Kit kinase, 1 to 10 µM.

Consider `CCc1[nH]c(C2CCN(c3ncnc4[nH]c(-c5ccc(C#N)cc5)cc34)CC2)nc1C` [P-3198, 4-[4-[4-(5-ethyl-4-methyl-1H-imidazol-2-yl)-1-piperidyl]-7H-pyrrolo[2,3-d]pyrimidin-6-yl]benzonitrile], for which the IC50 in assay [1] was under 10 µM; at c-Kit kinase, 1 to 10 µM.

On to `COc1ccc(-c2[nH]c(C3(C)CCN(c4ncnc5[nH]c(-c6ccc(C(=O)O)cc6)cc45)CC3)nc2C)cc1F` [P-3199, 4-[4-[4-[5-(3-fluoro-4-methoxy-phenyl)-4-methyl-1H-imidazol-2-yl]-4-methyl-1-piperidyl]-7H-pyrrolo[2,3-d]pyrimidin-6-yl]benzoic acid], for which the IC50 in assay [1] was under 10 µM; against c-Kit kinase, 0.0001 to 1 µM.

`Cc1nc(C2(C)CCN(c3ncnc4[nH]nc(C)c34)CC2)[nH]c1-c1ccc(Cl)cc1` [P-3200, 4-[4-[5-(4-chlorophenyl)-4-methyl-1H-imidazol-2-yl]-4-methyl-1-piperidyl]-3-methyl-1H-pyrazolo[3,4-d]pyrimidine]: the IC50 in assay [1] was under 10 µM; at c-Kit kinase it was 1 to 10 µM.

Take `Cc1nc(C2(C)CCN(c3ncnc4[nH]nc(C)c34)CC2)[nH]c1-c1cccc(OC(F)F)c1` [P-3201, 4-[4-[5-[3-(difluoromethoxy)phenyl]-4-methyl-1H-imidazol-2-yl]-4-methyl-1-piperidyl]-3-methyl-1H-pyrazolo[3,4-d]pyrimidine]: the half-maximal inhibitory concentration (IC50) in assay [1] is under 10 µM; against c-Kit kinase it was 1 to 10 µM.

Regarding `COc1ccc(-c2[nH]c(C3(C)CCN(c4ncnc5[nH]nc(C)c45)CC3)nc2C)cc1F` [P-3202, 4-[4-[5-(3-fluoro-4-methoxy-phenyl)-4-methyl-1H-imidazol-2-yl]-4-methyl-1-piperidyl]-3-methyl-1H-pyrazolo[3,4-d]pyrimidine], the IC50 was under 10 µM in assay [1] and 1 to 10 µM on c-Kit kinase.

`Cc1nc(C2(C)CCN(c3ncnc4[nH]nc(C)c34)CC2)[nH]c1-c1ccc2c(c1)OC(F)(F)O2` [P-3203, 4-[4-[5-(2,2-difluoro-1,3-benzodioxol-5-yl)-4-methyl-1H-imidazol-2-yl]-4-methyl-1-piperidyl]-3-methyl-1H-pyrazolo[3,4-d]pyrimidine]: the IC50 in assay [1] is under 10 µM; at c-Kit kinase, 1 to 10 µM.

`Fc1ccc(-c2cc3c(N4CCC(c5nnc(-c6ccc(F)cc6)[nH]5)CC4)ncnc3[nH]2)cc1` [P-3206, 6-(4-fluorophenyl)-4-[4-[5-(4-fluorophenyl)-4H-1,2,4-triazol-3-yl]-1-piperidyl]-7H-pyrrolo[2,3-d]pyrimidine]: the IC50 in assay [1] was under 10 µM; against c-Kit kinase it was 1 to 10 µM.

In the case of `COc1cc(-c2cc3c(N4CCC(c5nnc(-c6cccc(OC(F)F)c6)[nH]5)CC4)ncnc3[nH]2)ccn1` [P-3207, 4-[4-[5-[3-(difluoromethoxy)phenyl]-4H-1,2,4-triazol-3-yl]-1-piperidyl]-6-(2-methoxy-4-pyridyl)-7H-pyrrolo[2,3-d]pyrimidine], the IC50 in assay [1] is under 10 µM; against c-Kit kinase it was 1 to 10 µM.

For the molecule `CCOc1ccc(-c2[nH]c(C3(C)CCN(c4ncnc5[nH]c(-c6ccc(OC)nc6)cc45)CC3)nc2C)cc1F` [P-3209, 4-[4-[5-(4-ethoxy-3-fluoro-phenyl)-4-methyl-1H-imidazol-2-yl]-4-methyl-1-piperidyl]-6-(6-methoxy-3-pyridyl)-7H-pyrrolo[2,3-d]pyrimidine], the IC50 is under 10 µM in assay [1] and 0.0001 to 1 µM against c-Kit kinase.

In the case of `CCOc1ccc(-c2[nH]c(C3(C)CCN(c4ncnc5[nH]c(-c6cnn(C(F)F)c6)cc45)CC3)nc2C)cc1F` [P-3210, 6-[1-(difluoromethyl)pyrazol-4-yl]-4-[4-[5-(4-ethoxy-3-fluoro-phenyl)-4-methyl-1H-imidazol-2-yl]-4-methyl-1-piperidyl]-7H-pyrrolo[2,3-d]pyrimidine], the IC50 is under 10 µM in assay [1] and 0.0001 to 1 µM against c-Kit kinase.

Turning to `COc1ccc(-c2[nH]c(C3(C)CCN(c4ncnc5[nH]c(-c6ccc(C#N)nc6)cc45)CC3)nc2C)cc1F` [P-3211, 5-[4-[4-[5-(3-fluoro-4-methoxy-phenyl)-4-methyl-1H-imidazol-2-yl]-4-methyl-1-piperidyl]-7H-pyrrolo[2,3-d]pyrimidin-6-yl]pyridine-2-carbonitrile], the results for the IC50 (in assay [1]; against c-Kit kinase) were under 10 µM and 1 to 10 µM, respectively.

On to `COc1ccc(-c2[nH]c(C3(C)CCN(c4ncnc5[nH]c(-c6ccc(C(N)=O)cc6)cc45)CC3)nc2C)cc1F` [P-3212, 4-[4-[4-[5-(3-fluoro-4-methoxy-phenyl)-4-methyl-1H-imidazol-2-yl]-4-methyl-1-piperidyl]-7H-pyrrolo[2,3-d]pyrimidin-6-yl]benzamide], for which the IC50 was under 10 µM in assay [1] and 0.0001 to 1 µM on c-Kit kinase.

A word on the IC50: it is the midpoint of a concentration-inhibition curve.
